The test system of one series is T cells. Briefly: Purified T cells activated with anti-CD3/CD28 with nutlin, IL-12, MG-132. In kind it is cell-based, mouse. The conditions noted are these: MG-132 in the presence of both nutlin and IL-12. The source says: Regulation of p53 is complex, and it can be targeted by multiple pathways besides MDM2 (Chao C. C. (2015) Clin. Chim. Acta 438: 139-147). If IL-12 is rescuing T cells from nutlin, one possibility is that IL-12 might activate an alternative pathway of p53 degradation, not dependent on MDM2. To test this, purified T cells were activated (without any antigen-presenting cells or other cells) using anti-CD3/CD28 antibodies. T cells were activated in the presence or absence of nutlin with or without addition of recombinant IL-12.
Finally, to test the hypothesis that IL-12 targeted p53 for proteolytic degradation via an alternated pathway, proteasomal function was inhibited using MG-132. T cells were activated using immobilized CD3/CD28 as above. […] CFSE proliferation tracked inversely with p53 levels. […] While MG-132 affects many intracellular pathways besides p53, these findings support the basic hypothesis that IL-12 bypasses nutlin by targeting p53 for degradation via an alternative route.

The test system of series [1] is B16F10 tumors. In kind it is in vivo. As to conditions: for response of B16 melanoma tumors to chemotherapy alone: single moderate dose. As to the method:
In vivo tumor studies: The B16F10 and E.G7 (EL4-OVA) cell lines were obtained from ATCC. B16-OVA (B16F10 transfected with full-length chicken ovalbumin) clone MO4 was according to Falo et al. ((1995) Nat. Med. 1: 649-653). B16F10 cells expressing EGFP protein (B16-GFP cells) were derived using lentiviral transfection. Tumor implantation was performed as described (Sharma et al., (2007) J. Clin. Invest. 117: 2570-2582), using 1×10^5 cells for B16F10 and 1×10^6 cells for other cell lines (large inocula were used to ensure rapid tumor engraftment and immune suppression). […] Tumor volume was calculated from orthogonal diameters using the formula V=L×W^2×π/6. Mice received approved euthanasia when tumors reached a size of 300 mm^2 (product of orthogonal diameters); death was never used a planned endpoint in any study.
(§1) Tumor implantation was performed as described (Sharma et al., (2007) J. Clin. Invest. 117: 2570-2582). VO-OHpic was given at 10 mg/kg/day i.p., in 10% DMSO/PBS. Cyclophosphamide was given at 150 mg/kg i.p×1 dose; and oxaliplatin at 5 mg/kg i.p×1 dose. Nutlin-3a was administered daily at 10 mg/kg/day i.p. For checkpoint blockade, mice received anti-CTLA-4 plus a cocktail of antibodies against the PD-1 pathway. Vaccines and T cell adoptive transfer studies were performed as described (Sharma et al., (2015) Sci. Advances. 1: e1500845).
VO-OHpic/CTX, nutlin-3a, oxaliplatin and immunotherapy regimens: The vanadate compound VO-OHpic (Mak et al., (2010) J. Chem. Biol. 3: 157-163) inhibits PTEN activity, and this drug was used to destabilize PTEN+Tregs during chemotherapy. Like all of the available PTEN-inhibitors, VO-OHpic can also affect other phosphatases (Spinelli et al., (2015) Adv. Biol. Regul. 57: 102-111).
VO-OHpic was given at 10 mg/kg/day i.p., in 10% DMSO/PBS. Cyclophosphamide was given at 150 mg/kg i.p×1 dose. Oxaliplatin was given at 5 mg/kg i.p×1 dose. […] For checkpoint blockade, mice received anti-CTLA-4 (clone 9D9, BioXcell) plus a cocktail of antibodies against the PD-1 pathway: anti-PD-L2, clone TY25 (Yamazaki et al., (2002) J. Immunol. 169: 5538-5545); anti-PD-1, clone J43 (Agata et al., (1996) Int. Immunol. 8: 765-772); and anti-PD-L1, clone MIH7 (Tsushima et al., (2003) Eur. J. Immunol. 33: 2773-2782). A cocktail was used in order to block the PD-1 pathway as completely as possible and thus minimize any peculiarities of a single blocking antibody.

Series [2] relates to B16F10, EL4, LLC, Tg(Grm1)Epv, MMTV-PyMT. The series is classed as in vivo, mouse. The conditions noted are these: every tumor tested. The source says: Conversely, the effect of chemotherapy could be fully replaced by adoptive transfer of exogenous tumor-specific CD8^+ T cells (e.g., pmel-1 cells) activated with vaccine.
Series [3] relates to E.G7 tumors. Nature of the series: RIP-mOVA mice with E.G7 tumors treated with oxaliplatin with or without nutlin. The series is classed as in vivo. As to conditions: oxaliplatin in the absence of nutlin. As for the experimental part: A classical model of ICD was first tested in which EL4-OVA lymphoma tumors (clone E.G7) are treated with oxaliplatin chemotherapy (Ghiringhelli et al., (2009) Nat. Med. 15: 1170-1178). E.G7 bears the same model antigen as B16-OVA (described with the RIP-mOVA model, above), so it was possible to test the effects of nutlin plus oxaliplatin in the RIP-mOVA model.

Series [4] relates to E.G7 tumors. Briefly: E.G7/oxaliplatin model in LysMcre/p53-KO hosts with or without nutlin-3a. The series is classed as in vivo, mouse. The conditions noted are these: LysMcre/p53 knockout mice.
Description: To test whether the relevant target of nutlin in tumors was specifically the p53 expression in myeloid dendritic cells, the E.G7/oxaliplatin model in LysMcre/p53-KO hosts was used. If mice lacked the relevant p53 in tumor-associated myeloid cells, then LysMcre/p53-KO mice should lose all anti-tumor effect of nutlin. For these studies, mice received congenically-marked OT-I cells to monitor whether T cells were still rescued by IL-12 in tumors.
(§2) Mice with a nuclear-localizing Cre-recombinase knock-in replacing one copy of the Lyz2 gene (Clausen et al., (1999) Transgenic Res. 8: 265-277) (strain 004781, Jax) were crossed as heterozygotes with homozygous p53^flox/flox mice (Marino et al., (2000) Genes Dev. 14: 994-1004) (strain 008462, Jax).
as §1

In series [5] the test system is B16F10 tumors. The conditions noted are these: VO-OHpic combined with chemotherapy; Sharma et al. 2015; cited from earlier work.
The test system of series [6] is B16F10 tumors. Briefly: Tumors in knockout hosts treated with VO-OHpic or CTX/VO-OHpic. As to conditions: VO-OHpic alone, LysMcre/p53-KO mice. In kind it is in vivo, mouse.
Description: as §2
In vivo tumor studies: The B16F10 and E.G7 (EL4-OVA) cell lines were obtained from ATCC. B16-OVA (B16F10 transfected with full-length chicken ovalbumin) clone MO4 was according to Falo et al. ((1995) Nat. Med. 1: 649-653). B16F10 cells expressing EGFP protein (B16-GFP cells) were derived using lentiviral transfection. Tumor implantation was performed as described (Sharma et al., (2007) J. Clin. Invest. 117: 2570-2582), using 1×10^5 cells for B16F10 and 1×10^6 cells for other cell lines (large inocula were used to ensure rapid tumor engraftment and immune suppression). Tumors were implanted bilaterally in each mouse as a control for reproducible implantation technique; replicate tumor diameters in a single mouse were typically within ±15%. Tumor volume was calculated from orthogonal diameters using the formula V=L×W^2×π/6. Mice received approved euthanasia when tumors reached a size of 300 mm^2 (product of orthogonal diameters); death was never used a planned endpoint in any study.
Tumor implantation was performed as described (Sharma et al., (2007) J. Clin. Invest. 117: 2570-2582). […]

For a further series, the system named is p53. Briefly: Tumors in PTEN^Treg-KO mice treated in vivo with pifithrin. Details: species or system mouse.
The test system of another series is Ly6c+CD11c^NEG cells. Nature of the series: Mouse myeloid-cell maturation co-cultures. In kind it is cell-based. The conditions noted are these: exposed to signals from activated T cells. As for the experimental part:
Mouse myeloid-cell maturation cultures: Maturation co-cultures were performed in V-bottom wells (Nunc 249952 V96), using RPMI-1640 medium with 10% fetal bovine serum, but no added cytokines. The preferred source of myeloid cells was TDLN or spleen from mice bearing B16F10 or E.G7 tumors. Rapid isolation of cells was important for viability, so cells were disaggregated by passing once through a 40 μm mesh, then stained briefly on ice and FACS-sorted into ice-cold medium using low-shear fluidics and a large nozzle (Mo-Flo cell sorter). […] myeloid cells were enriched by sorting for Ly6c^+ that were CD11c^NEG B220^NEG (to exclude dendritic cells and B cells). For some experiments, myeloid cells were sub-fractionated using sort dates based on expression of Gr-1 and CD11b.
Sorted Ly6c+ myeloid cells were added to co-cultures as previously described (Sharma et al., (2013) Immunity 38: 998-1012). As an inflammatory stimulus for differentiation, CD8^+ effector cells (5×10^4) were FACS-sorted from spleens of either OT-I or pmel-1 mice (both performed equivalently), and added to co-cultures along with 100 nM cognate peptide (SIINFEKL (SEQ ID NO: 1) or hgp100). […]

In another series the test system is CD33+ cells. Nature of the series: Human myeloid cell cultures matured with recombinant IFNγ. The conditions noted are these: cultured in GM-CSF+IL-6, then IFNγ; FIG. 5A. The series is classed as cell-based. The source says: (Minneapolis, MN) and isolated by centrifugation over Ficoll-Paque PLUS (GE Healthcare), followed by enrichment for myeloid cells using CD33^+ micro-beads (Miltenyi MACs). Alternatively, myelomonocytic cells were enriched by counter-flow elutriation as previously described (Munn et al., (2002) Science 297: 1867-1870; Munn et al., (2004) J. lmmunol. 172: 4100-4110). Immature myeloid cells were then generated by culture for 7 days as previously described (Koehn et al., (2015) Blood 126: 1621-1628; Lechner et al., (2010) J. lmmunol. 185, 2273-2284). Briefly, PBMC were cultured in RPMI-1640 medium with 10% FBS, 1% Pen/Strep, 1% GlutaMax as well as recombinant human GM-CSF (10 ng/ml, R&D Systems)+IL-6 (10 ng/ml, R&D Systems). Culture growth media was refreshed on days 3 and 6; on day 7, cells were washed and returned to culture in medium without GM-CSF/IL-6. Replicate cultures were then treated for 2 days with or without recombinant human IFNγ (30ng/ml, R&D Systems) to induce maturation, and with or without p53 inhibitor pifithrin-α (10 uM, Sigma). After 48 h, cultures were harvested and stained for CD11b, CD33, phospho-p53-Ser15, IRF5 and BDCA3 (CD141).
Human peripheral-blood mononuclear cells were enriched for monocytic cells, then cultured in GM-CSF+IL-6 as described by Koehn et al. ((2015) Blood 126: 1621-1628). […]

The mark [7] stands for this setting: VO-OHpic alone, WT control mice.

“Also recorded” adds a separate entry of the source. Where two headings read alike, the source gives them in different places. Peptide text beside a SMILES is read from it. * marks the point of attachment. Cbz = O=C(OCc1ccccc1)*

On to `CC(C)C[C@@H](C=O)NC(=O)[C@H](CC(C)C)NC(=O)[C@H](CC(C)C)NC(=O)OCc1ccccc1` [MG-132] (Cbz-Leu-Leu-Leu-aldehyde), for which, in the series with T cells, the T cell proliferation result was “inhibited proliferation” and the “p53 levels in activated T cells” value is given as “progressively increased p53”.
Consider `O=P1(N(CCCl)CCCl)NCCCO1` (stereo not shown) [cyclophosphamide], for which the “response of B16 melanoma tumors to chemotherapy alone” value in the series on B16F10 tumors [1] is “highly resistant”. The “interaction of chemotherapy drug with PTEN-inhibitor” value in [2] was “synergy”.
In the case of `Nc1ccn([C@@H]2O[C@H](CO)[C@@H](O)C2(F)F)c(=O)n1` [gemcytabine], the “response of B16 melanoma tumors to chemotherapy alone” value in the series with B16F10 tumors [1] is “highly resistant”. In series [2], the “interaction of chemotherapy drug with PTEN-inhibitor” value is “synergy”.
For the molecule `O=C1[O][Pt]2([NH][C@@H]3CCCC[C@H]3[NH]2)[O]C1=O` [oxaliplatin], in the series with E.G7 tumors [3], the anti-tumor effect result was “transient regression” and the autoimmune diabetes entry is “rapidly died from progressive autoimmune diabetes”. Besides, in the series on E.G7 tumors [4], the “response to oxaliplatin chemotherapy” value was “unable to respond; also recorded: lost all response to treatment”.
As for VO-OHpic, the anti-tumor effect result in the series on B16F10 tumors [1] (PTEN-inhibitor by itself, large established tumors, FIG. 12) is recorded as “no effect”. Also, in the series on B16F10 tumors [1] (setting [7]), the “Ly6c+CD103+ dendritic cells” value is on record as “allowed emergence” and the tumor growth entry is on record as “suppressed tumor growth”. Further, the “enhancement of tumor growth by PTEN-inhibitor” value in the series with B16F10 tumors [1] (systems of the disclosure) is listed as “does not enhance the growth of tumors”. Also, in the series with B16F10 tumors [5], the “destabilization of PTEN+Tregs in tumors” value was “rapid and essentially complete destabilization”. In addition, in the series on B16F10 tumors [6], the tumor growth entry is “not suppressed”.
With pifithrin, in the series with p53, the “emergence of Ly6c+CD103+ dendritic cell subset” value was “selectively prevented the emergence” and the “immune surveillance of tumors” value is listed as “allowed tumors to escape immune surveillance”. Further, the “differentiation of Ly6c+ MDSCs into Ly6c+CD103+ dendritic cells” value in the series with Ly6c+CD11c^NEG cells is given as “inhibited”.
Consider “recombinant IFNγ: recombinant human IFNγ (R&D Systems) used to induce maturation”, for which the “maturation of CD33+ cells” value in the series on CD33+ cells is “rapidly matured into activated cells expressing CD83, CD141, XCR1 and Batf3”.
